Experimental data from publication PMC7269513 (Antimicrobial Agents and Chemotherapy, 2020).
Several values for one entry are separate records, joined by “and”; a condition that tells them apart may be missing. Equal values may be shown once. Read-outs that look alike come from different tables or passages of the source.

Legend:
[1] = target: CTX-M-14 (Escherichia coli, UniProt Q9L5C7); assay: IC50 of beta-lactamase inhibition (nitrocefin hydrolysis); assay type: biochemical; conditions: read-out: IC50 (nM) of drug
[2] = target: T1, SHV-12 (Klebsiella pneumoniae, UniProt P0AD64, E235K/G234S/L31Q); assay: as above; assay type: biochemical; conditions: read-out: IC50 (nM) of drug
[3] = target: T2, CTX-M-15 (Escherichia coli, UniProt Q9EXV5); assay: as above; assay type: biochemical; conditions: read-out: IC50 (nM) of drug
Experimental: (§1) […]; Initial rates of reaction were calculated and exported to Prism software to calculate IC50 values using the “dose-response—inhibition, variable slope (four parameters)” equation. Ki values were calculated by the method of Waley ([31]). This method was previously used to calculate Ki values for boronic fast-on–fast-off BLIs.

[4] = target: T3, P99 (Enterobacter cloacae, UniProt P05364); assay: as above; assay type: biochemical
Experimental: as §1

[5] = target: T4, VIM-1 (Pseudomonas aeruginosa, UniProt A0A0F7KYQ8); assay: as above; assay type: biochemical
[6] = target: T5, IMP-1 (Serratia marcescens, UniProt P52699); assay: IC50 of beta-lactamase inhibition (imipenem hydrolysis); assay type: biochemical
[7] = target: T6, NDM-1 (Klebsiella pneumoniae, UniProt C7C422); assay: biochemical
[8] = target: T7, KPC-2 (Klebsiella pneumoniae, UniProt Q9F663); assay type: biochemical
[9] = target: T6, NDM-1; assay type: biochemical
[10] = target: IMP-26 (Pseudomonas aeruginosa, UniProt D0V558); assay type: biochemical; conditions: hydrolysis by IMP-26
[11] = target: T8, OXA-48 (Klebsiella pneumoniae, UniProt Q6XEC0)
[12] = target: T9, OXA-23 (Acinetobacter baumannii, UniProt Q9L4P2)
[13] = target: T10, OXA-24 (Acinetobacter baumannii, UniProt Q8RLA6)
[14] = target: T11, OXA-58 (Acinetobacter baumannii, UniProt Q2TR58)
[15] = target: T4, VIM-1
[16] = target: T5, IMP-1
[17] = target: T1, SHV-12; assay type: biochemical
[18] = target: T12, TEM-43 (Escherichia coli, UniProt P62593, E102K/M180T/R162H, species not given); assay type: biochemical; conditions: hydrolysis by TEM-43
[19] = target: T13, KPC-3 (Klebsiella pneumoniae, UniProt Q9F663, H272Y); assay type: biochemical; conditions: hydrolysis by KPC-3
[20] = target: T14, BKC-1 (Klebsiella pneumoniae, UniProt A0A0F6QEY8); assay: Km and kcat of nitrocefin or imipenem hydrolysis; assay type: biochemical; conditions: hydrolysis by BKC-1
[21] = target: T15, FRI-1 (Enterobacter cloacae, UniProt A0A0M5L4T8); assay: Km and kcat of nitrocefin or imipenem hydrolysis; assay type: biochemical; conditions: hydrolysis by FRI-1
[22] = target: T16, SME-2 (Serratia marcescens, UniProt P52682, V207Q); assay type: biochemical
[23] = target: TEM-10 (Escherichia coli, UniProt P62593, E237K/R162S); conditions: hydrolysis by TEM-10
[24] = target: T7, KPC-2; assay: IC50 of beta-lactamase inhibition (nitrocefin hydrolysis); assay type: biochemical; conditions: KPC-2, class A; substrate nitrocefin; 10 min preincubation at 37°C; read-out: IC50 (nM) of drug
[25] = target: T8, OXA-48; assay: as above; assay type: biochemical, Enterobacteriaceae; conditions: read-out: IC50 (nM) of drug
[26] = target: T9, OXA-23; assay: as above; assay type: biochemical; conditions: read-out: IC50 (nM) of drug
[27] = target: T1, SHV-12; assay: biochemical; conditions: derived from the ratio of koff and k2/K
[28] = target: T2, CTX-M-15; assay: koff of enzyme activity recovery, jump dilution method; assay type: biochemical; conditions: derived from the ratio of koff and k2/K
Experimental: (§2) Enzyme at a 1 μM concentration in buffer A was mixed with BLI at an 8-fold-higher concentration than its stoichiometry ratio (determined in preliminary stoichiometry experiments). […].

[29] = target: T7, KPC-2; assay: as above; assay type: biochemical; conditions: derived from the ratio of koff and k2/K
Experimental: as §2

[30] = target: T13, KPC-3; assay: as above; assay type: biochemical; conditions: derived from the ratio of koff and k2/K
Experimental: as §2

[31] = target: T9, OXA-23; assay: as above; assay type: biochemical; conditions: derived from the ratio of koff and k2/K
Experimental: as §2

[32] = target: T10, OXA-24; assay: as above; assay type: biochemical; conditions: derived from the ratio of koff and k2/K
Experimental: as §2

[33] = target: T11, OXA-58; assay: as above; assay type: biochemical; conditions: derived from the ratio of koff and k2/K
Experimental: as §2

[34] = target: T3, P99; assay: as above; assay type: biochemical; conditions: derived from the ratio of koff and k2/K
Experimental: as §2

[35] = target: T16, SME-2; assay: as above; assay type: biochemical; conditions: derived from the ratio of koff and k2/K
Experimental: as §2

[36] = target: T8, OXA-48; assay: as above; assay type: biochemical, Enterobacteriaceae; conditions: derived from the ratio of koff and k2/K
Experimental: as §2

[37] = target: T14, BKC-1; assay: Stoichiometry of beta-lactamase inhibition; assay type: biochemical; conditions: minimal BLI/enzyme ratio reducing enzyme activity by at least 90%
Experimental: (§3) Purified enzyme at 1 μM concentration in buffer A was mixed with BLI at a BLI/enzyme ratio varying from 128 to 0.0625. […]. Stoichiometry of inhibition was determined as a minimal BLI/enzyme ratio reducing enzyme activity by at least 90%.

[38] = target: T15, FRI-1; assay: Stoichiometry of beta-lactamase inhibition; assay type: biochemical; conditions: minimal BLI/enzyme ratio reducing enzyme activity by at least 90%
Experimental: as §3

[39] = target: T13, KPC-3; assay: Stoichiometry of beta-lactamase inhibition; assay type: biochemical; conditions: minimal BLI/enzyme ratio reducing enzyme activity by at least 90%
Experimental: as §3

[40] = target: T1, SHV-12; assay: Stoichiometry of beta-lactamase inhibition; assay type: biochemical; conditions: minimal BLI/enzyme ratio reducing enzyme activity by at least 90%
Experimental: as §3

[41] = target: T16, SME-2; assay: Stoichiometry of beta-lactamase inhibition; assay type: biochemical; conditions: minimal BLI/enzyme ratio reducing enzyme activity by at least 90%
Experimental: as §3

[42] = target: T12, TEM-43; assay: Stoichiometry of beta-lactamase inhibition; assay type: biochemical; conditions: minimal BLI/enzyme ratio reducing enzyme activity by at least 90%
Experimental: as §3

[43] = target: T2, CTX-M-15; assay: Stoichiometry of beta-lactamase inhibition; assay type: biochemical; conditions: minimal BLI/enzyme ratio reducing enzyme activity by at least 90%
Experimental: (§4) […]. Stoichiometry of inhibition was determined as a minimal BLI/enzyme ratio reducing enzyme activity by at least 90%.

[44] = target: T7, KPC-2; assay: Stoichiometry of beta-lactamase inhibition; assay type: biochemical; conditions: minimal BLI/enzyme ratio reducing enzyme activity by at least 90%
Experimental: as §4

[45] = target: T9, OXA-23; assay: Stoichiometry of beta-lactamase inhibition; assay type: biochemical; conditions: minimal BLI/enzyme ratio reducing enzyme activity by at least 90%
Experimental: as §4

[46] = target: T10, OXA-24; assay: Stoichiometry of beta-lactamase inhibition; assay type: biochemical; conditions: minimal BLI/enzyme ratio reducing enzyme activity by at least 90%
Experimental: as §4

[47] = target: T8, OXA-48; assay: Stoichiometry of beta-lactamase inhibition; assay type: biochemical; conditions: minimal BLI/enzyme ratio reducing enzyme activity by at least 90%
Experimental: as §4

[48] = target: T11, OXA-58; assay: Stoichiometry of beta-lactamase inhibition; assay type: biochemical; conditions: minimal BLI/enzyme ratio reducing enzyme activity by at least 90%
Experimental: as §4

[49] = target: T3, P99; assay: Stoichiometry of beta-lactamase inhibition; assay type: biochemical; conditions: minimal BLI/enzyme ratio reducing enzyme activity by at least 90%
Experimental: as §4

[50] = target: T5, IMP-1; assay: Ki of competitive MBL inhibition (method of Waley); assay type: biochemical
Experimental: as §1

[51] = target: T4, VIM-1; assay: Ki of competitive MBL inhibition (method of Waley); assay type: biochemical
Experimental: as §1

[52] = system: strain producing cloned L1 from Stenotrophomonas maltophilia; conditions: strain producing cloned L1 (B3 subclass MBL); cited from earlier work
[53] = P99, class C, substrate nitrocefin, 10 min preincubation at 37°C, read-out: IC50 (nM) of drug
[54] = Kd values for MBLs were based on Kis

NC(=O)[C@@H]1CC[C@@H]2CN1C(=O)N2OS(=O)(=O)O [Avibactam, avibactam]
IC50 [1]: 1.4 ± 0.4 nM | IC50 [2]: 0.61 ± 0.19 nM | IC50 [3]: 0.56 ± 0.25 nM | IC50 ([4]; IC50 (nM) of drug): 26 ± 7 nM | IC50 ([5]; IC50 (nM) of drug): > 160000 nM | IC50 [6]: > 160000 nM | IC50 [7]: > 160000 nM

C[C@@H](O)[C@H]1C(=O)N2C(C(=O)O)=C(SCCN=CN)C[C@H]12 [Imipenem, imipenem]
Km [8]: 70 µM | kcat [8]: 39 s⁻¹ | Km [9]: 206 µM | kcat [9]: 96 s⁻¹ | kcat [10]: 35 s⁻¹ | Km [11]: 1.5 µM | kcat [11]: 1.7 s⁻¹ | Km [12]: 6.6 µM | kcat [12]: 0.7 s⁻¹ | Km [13]: 1.2 µM | kcat [13]: 1.9 s⁻¹ | Km [14]: 1.3 µM | kcat [14]: 0.66 s⁻¹ | Km [15]: 13 µM | kcat [15]: 15 s⁻¹ | Km [16]: 66 µM

O=C(Cc1cccs1)N[C@@H]1C(=O)N2C(C(=O)O)=C(/C=C/c3ccc([N+](=O)[O-])cc3[N+](=O)[O-])CS[C@H]12 [Nitrocefin, nitrocefin]
Km [17]: 5.5 µM | kcat ([17]; hydrolysis by SHV-12): 73 s⁻¹ | kcat [18]: 175 s⁻¹ | Km [8]: 49 µM | kcat ([8]; hydrolysis by KPC-2): 206 s⁻¹ | kcat [19]: 182 s⁻¹ | kcat [20]: 721 s⁻¹ | kcat [21]: 176 s⁻¹ | Km [22]: 59 µM | kcat ([22]; hydrolysis by SME-2): 352 s⁻¹ | Km [9]: 1.6 µM | kcat ([9]; hydrolysis by NDM-1): 27 s⁻¹ | kcat [10]: 325 s⁻¹ | kcat [23]: 18 s⁻¹

O=C(O)c1c(F)ccc2c1OB(O)[C@@H]1C[C@H]21 [QPX7728]
IC50 [24]: 2.9 ± 0.4 nM | IC50 [1]: 0.94 ± 0.2 nM | IC50 [2]: 1.9 ± 0.6 nM | IC50 [3]: 1.2 ± 0.1 nM | IC50 [4, 53]: ~22 nM and 22 nM | IC50 [25]: 1 nM and 1.1 nM | IC50 [26]: 1 nM and 1.2 nM | IC50 ([5]; read-out: IC50 (nM) of drug): 14 ± 4 nM | IC50 [6]: 610 ± 70 nM | Kd [27]: 28 ± 4 nM | Kd [28]: 0.11 ± 0.02 nM | Kd [29]: 0.25 ± 0.03 nM | Kd [30]: 0.31 ± 0.06 nM | Kd [31]: 1.6 ± 0.2 nM | Kd [32]: 0.58 ± 0.1 nM | Kd [33]: 3.2 ± 0.3 nM | Kd [34]: 0.53 ± 0.06 nM | Kd [35]: 0.15 ± 0.02 nM | Kd [36]: 0.13 ± 0.01 nM | Stoichiometry [37]: 1 | Stoichiometry [38]: 1 | Stoichiometry [39]: 1 | Stoichiometry [40]: 1 | Stoichiometry [41]: 1 | Stoichiometry [42]: 1 | Stoichiometry [43]: 1 | Stoichiometry [44]: 1 | Stoichiometry [45]: 2 | Stoichiometry [46]: 1 | Stoichiometry [47]: 1 | Stoichiometry [48]: 1 | Stoichiometry [49]: 1 | Kd [50, 54]: 240 ± 30 nM | Ki ([50]; competitive, fast-on–fast-off): 240 ± 30 nM | Kd [51, 54]: 7.5 ± 2.1 nM | Ki ([51]; competitive, fast-on–fast-off): 7.5 ± 2.1 nM | ability to reduce MICs of meropenem and ceftazidime [52]: inability

O=C(NC1CCNCC1)[C@@H]1CC[C@@H]2CN1C(=O)N2OS(=O)(=O)O [Relebactam, relebactam]
IC50 [1]: 34 ± 10 nM | IC50 [2]: 330 ± 50 nM | IC50 [4, 53]: 36 ± 4 nM | IC50 ([5]; IC50 (nM) of drug): > 160000 nM | IC50 [6]: > 160000 nM | IC50 [7]: > 160000 nM

O=C(O)C[C@@H]1CC[C@H](NC(=O)Cc2cccs2)B(O)O1 [Vaborbactam, vaborbactam]
IC50 [24]: 110 ± 30 nM | IC50 [1]: 110 ± 40 nM | IC50 [2]: 56 ± 11 nM | IC50 [3]: 92 ± 13 nM | IC50 [4, 53]: 88 ± 38 nM | IC50 [25]: 6900 nM | IC50 [26]: 120000 nM | IC50 ([5]; IC50 (nM) of drug): > 160000 nM | IC50 [6]: > 160000 nM | IC50 [7]: > 160000 nM
